# ChEMBL document CHEMBL4402560, “Sarco/Endoplasmic Reticulum Calcium ATPase Inhibitors: Beyond Anticancer Perspective” (J Med Chem, 2020)
# System: Mycobacterium tuberculosis variant bovis
# Assay: Antimycobacterial activity against Mycobacterium bovis
# Format: functional, organism-based
row,SMILES,IC50 [µM]
1,C/C=C(/C)C(=O)O[C@@H]1C[C@H]2C(=C1C)[C@@H]1OC(=O)[C@@](C)(O)[C@@]1(O)[C@@H](OC(=O)CCCCn1cc([C@]3(O)CC[C@H]4[C@@H]5CCc6cc(OC)ccc6[C@H]5CC[C@@]43C)nn1)C[C@]2(C)OC(C)=O,10.6
2,C/C=C(\C)C(=O)O[C@@H]1C[C@H]2C(=C1C)[C@@H]1OC(=O)[C@@](C)(O)[C@@]1(O)[C@@H](OC(=O)[C@H](C)CC)C[C@@]2(C)OC(C)=O,27.3
